The source of these data is patent US20060160851A1, “Substituted piperidine carbamates” (Novo Nordisk A/S, priority 2003, published 2006).

The target of the experiment is T1, hormone sensitive lipase (Homo sapiens, UniProt Q05469).
T1 construct: made in house
T1 sequence (Q05469 1-1076): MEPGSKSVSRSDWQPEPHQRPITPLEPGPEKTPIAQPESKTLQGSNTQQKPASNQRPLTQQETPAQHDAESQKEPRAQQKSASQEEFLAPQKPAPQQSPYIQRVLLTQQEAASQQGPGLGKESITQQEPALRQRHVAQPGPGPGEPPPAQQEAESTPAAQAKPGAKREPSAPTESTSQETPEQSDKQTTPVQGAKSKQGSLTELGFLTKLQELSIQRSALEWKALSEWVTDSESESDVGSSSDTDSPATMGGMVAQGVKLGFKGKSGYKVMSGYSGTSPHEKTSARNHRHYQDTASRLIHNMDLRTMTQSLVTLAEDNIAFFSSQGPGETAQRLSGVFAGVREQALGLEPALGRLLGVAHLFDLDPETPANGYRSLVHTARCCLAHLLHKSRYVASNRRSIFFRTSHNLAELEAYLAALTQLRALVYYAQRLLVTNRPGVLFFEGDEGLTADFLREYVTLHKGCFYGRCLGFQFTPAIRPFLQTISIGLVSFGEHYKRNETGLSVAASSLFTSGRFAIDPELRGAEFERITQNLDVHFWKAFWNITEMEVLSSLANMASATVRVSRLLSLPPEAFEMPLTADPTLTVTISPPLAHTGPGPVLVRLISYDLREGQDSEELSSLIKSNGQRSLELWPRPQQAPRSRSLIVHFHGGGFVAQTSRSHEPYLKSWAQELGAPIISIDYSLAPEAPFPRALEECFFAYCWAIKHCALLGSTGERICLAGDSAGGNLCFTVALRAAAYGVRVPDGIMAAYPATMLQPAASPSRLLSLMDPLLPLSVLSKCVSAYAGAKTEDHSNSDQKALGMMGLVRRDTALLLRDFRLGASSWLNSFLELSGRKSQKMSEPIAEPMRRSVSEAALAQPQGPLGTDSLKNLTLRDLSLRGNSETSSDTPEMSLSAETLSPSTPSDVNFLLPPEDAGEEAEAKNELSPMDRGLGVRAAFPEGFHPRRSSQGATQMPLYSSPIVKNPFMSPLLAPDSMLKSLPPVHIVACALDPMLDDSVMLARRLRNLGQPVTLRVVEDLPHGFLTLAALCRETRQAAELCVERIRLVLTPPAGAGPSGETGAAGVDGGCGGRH
The experiment is described as follows: Assay 3190.1: percent inhibition of hormone sensitive lipase by compound at 10 μM (fluorochrome-labeled triacylglyceride emulsion, HSL_FL). Conditions: 10 μM sample concentration, % activity relative to non-inhibited sample (no compound), 30 min preincubation at 25° C., 120 min incubation at 37° C.; for activity at 10 µM: read-out: Test 3190.1 HSL_FL % ACTIVITY
It counts as biochemical. The text has this: The Hormone-sensitive lipase was provided by Dr. Cecilia Holm, from Lund University Sweden or produced and purified by Novo Nordisk (NN) using the reagents and protocols used by Dr. Holm. The substrates used are: ^3H-labeled triolein (TO) from Amersham, Buckinghamshire, U.K. cat No. TRA191; 5-20 Ci/mmol dissolved in toluene, triolein (Sigma, Cat. No. T-1740), fluorochrome-labeled triacylglyceride (cis-octadec-9-enoic acid 2-[12-(7-nitrobenzo[1,2,5]oxadiazol-4-ylamino)dodecanoyloxy]-1-cis-octadec-9-enoyloxymethyl-ethyl ester) prepared by Novo Nordisk (NN) by conventional methods, and 1,3-(di[^3H]-stearin), 2-(PEG-Biotin)glycerol prepared in collaboration with Amersham Pharmacia Biotech, UK and described in WO 01/073442. Phosphatidyl choline (PC) and phosphatidyl inositol (PI) are from Sigma (St Luis Mo. cat. Nos. P-3556 and P-5954 respectively). All other reagents are of commercial grade and obtained from various commercial sources.
3190.1: Assay for determination of percent inhibition of hormone sensitive lipase by compound at 10 μM sample concentration.
A lipid emulsion with fluorochrome-labeled triacylglyceride and phospholipid is used as substrate with a standard concentration of highly purified HSL (12 μg/mL initial concentration corresponding to 600 ng/mL final concentration). BSA is added as product acceptor receptor. The transfer of the fluorochrome from the lipid phase to the water (BSA) phase changes the fluorescent properties of the fluorochrome. The changes can be monitored on a fluorimeter with an excitation wavelength of 450 nm and an emission wavelength of 545 nm.
Compound and HSL (20 μL compound, 10 μL enzyme and 70 μL PED-BSA buffer) is pre-incubated for 30 min at 25° C. before addition of substrate (100 μL). Amount of formed product is measured after 120 min incubation at 37° C.
Results are given as percent activity relative to a non-inhibited sample (no compound).

Take `O=C(Oc1ccc(Oc2ccc(C(F)(F)F)cn2)cc1)N1CCC(Oc2ccc(N3CCN(C4CCCC4)CC3)cc2)CC1` [Example 22, 4-[4-(4-Cyclopentyl-piperazin-1-yl)-phenoxy]-piperidine-1-carboxylic acid 4-(5-trifluoromethyl-pyridin-2-yloxy)-phenyl ester]: the activity at 10 µM worked out at 4%. Turning to `O=C(Nc1ccc(OC(=O)N2CCC(On3cccn3)CC2)nc1)c1ccccc1` [Example 61, 4-(Pyrazol-1-yloxy)-piperidine-1-carboxylic acid 5-benzoylamino-pyridin-2-yl ester], the activity at 10 µM turned out to be 15%. As for `CC(C)(C)CCNC(=O)c1ccc(OC(=O)N2CCC(Oc3ccc(C(=O)O)cc3)CC2)cc1` [Example 105, 4-(4-Carboxy-phenoxy)-piperidine-1-carboxylic acid 4-(3,3-dimethyl-butylcarbamoyl)-phenyl ester], the activity at 10 µM worked out at 11%. Regarding `O=C(O)c1ccc(OC2CCN(C(=O)Oc3ccc(Oc4ccc(C(F)(F)F)cn4)cc3)CC2)cc1` [Example 39, 4-(4-Carboxy-phenoxy)-piperidine-1-carboxylic acid 4-(5-trifluoromethyl-pyridin-2-yloxy)-phenyl ester], the activity at 10 µM amounted to 5%. In the case of `O=C(O)CCc1cccc(OC2CCN(C(=O)Oc3ccc(Oc4ccc(C(F)(F)F)cn4)cc3)CC2)c1` [Example 112, 4-[3-(2-Carboxy-ethyl)-phenoxy]-piperidine-1-carboxylic acid 4-(5-trifluoromethyl-pyridin-2-yloxy)-phenyl ester], the activity at 10 µM turned out to be 14%. On to `Cc1ccc(Cc2ccc(OC(=O)N3CCC(On4cccn4)CC3)cc2)nc1` [Example 48, 4-(Pyrazol-1-yloxy)-piperidine-1-carboxylic acid 4-(5-methyl-pyridin-2-ylmethyl)-phenyl ester], for which the activity at 10 µM is 1%. With `O=C(O)Cc1ccc(CC2CCN(C(=O)Oc3ccc(Cc4ccc(C(F)(F)F)cc4)cc3)CC2)cc1` [Example 74, 4-(4-Carboxymethyl-benzyl)-piperidine-1-carboxylic acid 4-(4-trifluoromethyl-benzyl)-phenyl ester], the activity at 10 µM amounted to 3%. Regarding `O=C(O)Cc1ccc(OC2CCN(C(=O)Oc3ccc(Oc4ccc(Cl)cn4)cc3)CC2)cc1` [Example 117, 4-(4-Carboxymethyl-phenoxy)-piperidine-1-carboxylic acid 4-(5-chloro-pyridin-2-yloxy)-phenyl ester], the activity at 10 µM was 8%.

On to `O=C(O)Cc1ccc(OC2CCN(C(=O)Oc3ccc(Oc4ccc(C(F)(F)F)cc4)cc3)CC2)cc1` [Example 103, 4-(4-Carboxymethyl-phenoxy)-piperidine-1-carboxylic acid 4-(4-trifluoromethyl-phenoxy)-phenyl ester], for which the activity at 10 µM was 6%. With `O=C(O)Cc1ccc(OC2CCN(C(=O)Oc3ccc(Cc4ncc(C(F)(F)F)cc4Cl)cc3)CC2)cc1` [Example 102, 4-(4-Carboxymethyl-phenoxy)-piperidine-1-carboxylic acid 4-(3-chloro-5-trifluoromethyl-pyridin-2-ylmethyl)-phenyl ester], the activity at 10 µM came to 11%. On to “4-(4-Carboxymethyl-phenoxy)-piperidine-1-carboxylic acid 4-[2-(1-methyl-1H-tetrazol-5-yloxy)-ethyl]-phenyl ester [Example 94]”, for which the “Test 3190.1 HSL_FL % ACTIVITY” value stood at 6%.

With `O=C(O)Cc1ccc(OC2CCN(C(=O)Oc3ccc(C(=O)NCCc4cccs4)cc3)CC2)cc1` [Example 91, 4-(4-Carboxymethyl-phenoxy)-piperidine-1-carboxylic acid 4-(2-thiophen-2-yl-ethylcarbamoyl)-phenyl ester], the activity at 10 µM amounted to 10%. Still for that read-out and setting: the value for `O=C(O)Cc1ccc(OCC2CCN(C(=O)Oc3ccc(Oc4ccc(C(F)(F)F)cn4)cc3)CC2)cc1` [Example 44, 4-(4-Carboxymethyl-phenoxymethyl)-piperidine-1-carboxylic acid 4-(5-trifluoromethyl-pyridin-2-yloxy)-phenyl ester] was 5%; that for `CN(CCC1CCN(C(=O)Oc2ccc(Oc3ccc(C(F)(F)F)cn3)cc2)CC1)Cc1ccccc1` [Example 1, 4-[2-(Benzyl-methyl-amino)-ethyl]-piperidine-1-carboxylic acid 4-(5-trifluoromethyl-pyridin-2-yloxy)-phenyl ester] was 1%; that for `C=CCOC(=O)Cc1ccc(OC2CCN(C(=O)Oc3ccc(CCN4C(=O)CC(C)(C)CC4=O)cc3)CC2)cc1` [Example 55, 4-(4-Allyloxycarbonylmethyl-phenoxy)-piperidine-1-carboxylic acid 4-[2-(4,4-dimethyl-2,6-dioxo-piperidin-1-yl)-ethyl]-phenyl ester] was 1%. As for `O=C(Oc1ccc(Oc2ccc(C(F)(F)F)cn2)cc1)N1CCC(Sc2nccn2-c2cccnc2)CC1` [Example 3, 4-(1-Pyridin-3-yl-1H-imidazol-2-ylsulfanyl)-piperidine-1-carboxylic acid 4-(5-trifluoromethyl-pyridin-2-yloxy)-phenyl ester], the activity at 10 µM was found to be 5%. Consider `Cc1ccc(Cc2ccc(OC(=O)N3CCC(Oc4ccccc4)CC3)cc2)cn1` [Example 50, 4-Phenoxy-piperidine-1-carboxylic acid 4-(6-methyl-pyridin-3-ylmethyl)-phenyl ester], for which the activity at 10 µM came out at 3%. As for `O=C(O)c1coc(-c2ccc(OC3CCN(C(=O)Oc4ccc(Oc5ccc(C(F)(F)F)cn5)cc4)CC3)cc2)n1` [Example 36, 4-[4-(4-Carboxy-oxazol-2-yl)-phenoxy]-piperidine-1-carboxylic acid 4-(5-trifluoromethyl-pyridin-2-yloxy)-phenyl ester], the activity at 10 µM came out at 8%.

Take `O=C(Oc1ccc(Oc2ccc(C(F)(F)F)cn2)cc1)N1CCC(On2nccc2Sc2ccccc2)CC1` [Example 12, 4-(5-Phenylsulfanyl-pyrazol-1-yloxy)-piperidine-1-carboxylic acid 4-(5-trifluoromethyl-pyridin-2-yloxy)-phenyl ester]: the activity at 10 µM came out at 11%.

Consider `O=C(Oc1ccc(Oc2ccc(C(F)(F)F)cn2)cc1)N1CCC(Oc2cccnc2)CC1` [Example 10, 4-(Pyridin-3-yloxy)-piperidine-1-carboxylic acid 4-(5-trifluoromethyl-pyridin-2-yloxy)-phenyl ester], for which the activity at 10 µM stood at 1%. For “4-(4-Carboxymethyl-phenoxy)-piperidine-1-carboxylic acid 4-(2-phenoxy-ethyl)-phenyl ester [Example 92]”, the “Test 3190.1 HSL_FL % ACTIVITY” value was 3%. Consider `O=C(O)Cc1ccc(OC2CCN(C(=O)Oc3ccc(C(=O)NCCc4ccccc4)cc3)CC2)cc1` [Example 85, 4-(4-Carboxymethyl-phenoxy)-piperidine-1-carboxylic acid 4-phenethylcarbamoyl-phenyl ester], for which the activity at 10 µM was 5%. On to `Cc1ccc(CC2CCN(C(=O)Oc3ccc(Cc4ccc(C(F)(F)F)cc4)cc3)CC2)nc1` [Example 71, 4-(5-Methyl-pyridin-2-ylmethyl)-piperidine-1-carboxylic acid 4-(4-trifluoromethyl-benzyl)-phenyl ester], for which the activity at 10 µM was found to be 9%.
